Source: patent US6939893B2, “Method of reducing toxicity of anticancer agents” (priority 2002, dated 2005)
Like-named read-outs stand apart in the source and are kept apart here.

How the values were obtained:
normal nude mice [1] = system: normal nude mice
normal nude mice [2] = test: Effect of MSC on in vivo toxicity of irinotecan in normal nude mice (Example 1, FIG. 1); conditions: for protection provided by MSC: MSC 0.2 mg/mouse/day ×42 p.o.
Protocol: The data are combined from at least three independent experiments with five (5) animals per experiment.
To illustrate this embodiment, nude mice were administered 42 single, daily oral doses of 0.2 mg/mouse of MSC.

normal mice = test: Role of MSC dose in modulating irinotecan toxicity in normal mice (Example 6); type: in vivo
Text: In order to identify the minimum dose of MSC in the successful modulation of drug induced toxicities. […] Those skilled in the art will recognize that by conducting experiments as described herein, optimal doses of selenium for reducing toxicity of other chemotherapeutic agents and other anticancer modalities can be easily determined.

[3] = system: squamous cell carcinoma of the head and neck (A253); conditions: MSC 0.2 mg/mouse/d × 42 p.o. where combined
normal rats = test: Effect of MSC on toxicity of irinotecan in normal rats (Example 2, FIG. 2); type: in vivo
Text: The data are combined from 2-5 independent experiments with four (4) animals for each experiment.

normal nude mice [4] = test: Comparison of MSC and SLM as modulators of irinotecan toxicity in normal nude mice (Example 5, FIG. 4); type: in vivo
Text: Each experimental group had 10 mice each from two (2) independent experiments.

rats = test: Renal function test after CDDP ± MSC treatment in rats (Example 8); type: in vivo
Protocol: Reversal of renal toxicity induced by Cisplatin (CDDP). The dose limiting toxicity of therapeutic doses of cisplatin is kidney toxicity. Studies were performed to identify blood biological markers modified by CDDP and to evaluate the ability of MSC to reverse the process. Four groups of six animals each were used. The first group was untreated rats (control), the second group was given MSC at 0.75 mg/rat/day for 20 days and samples collected 2 hours after MSC administration on day 20. The third group was administered CDDP alone at 6 mg/kg by a single
i.v. injection and samples were collected on day 6. The fourth group was adminstered MSC (0.75 mg/rat/day for 20 days) with CDDP (6 mg/kg). CDDP was given 14 days after MSC administration and […] was given for 6 more days after CDDP administration. Samples were collected on day 6 after CDDP administration. Blood samples were collected at postmortem by cardiac puncture. Serum was obtained from the blood samples and urea nitrogen and creatinine concentrations were determined by standard methods using commercially kits (Ortho Clinical Diagnostics).

normal nude mice [5] = test: Effect of MSC on toxicity of irinotecan, taxol, FU and cisplatin in normal nude mice (Example 4, FIG. 3); type: in vivo; conditions: toxic doses above MTD: irinotecan weekly, taxol 75 mg/kg, 5-FU 150 mg/kg, cisplatin 15 mg/kg once i.v.
Text: In all cases drug doses used were toxic and above the maximum tolerated dose.

[6] = day 22, 24 h after third irinotecan dose, irinotecan 200 mg/kg, MSC 0.2 mg/mouse
[7] = irinotecan 100 mg/kg/wk ×4 i.v. alone
[8] = irinotecan 200 mg/kg/wk×4 i.v. alone
[9] = irinotecan 100 mg/kg/wk × 4 i.v.
[10] = serum, Mean ± SD, CDDP 6 mg/kg single i.v., MSC 0.75 mg/rat daily for 20 days

## CCc1c2c(nc3ccc(OC(=O)N4CCC(N5CCCCC5)CC4)cc13)-c1cc3c(c(=O)n1C2)COC(=O)[C@]3(O)CC [Irinotecan, irinotecan, reference compound]
Normal nude mice [1]; [6]
  HCT: haematocrit: 40.9 ± 4.2%
  MCH: mean corpuscular hemoglobin: 17.5 ± 0.3 PICO Grams
  MCHC: mean corpuscular hemoglobin concentration: 32.7 ± 0.6%
  PLT: platelets: 836 ± 201 THSN/CU MM
  RBC: red blood cell: 7.8 ± 1.0 Mill/CU MM
  WBC: white blood cell: 3.5 ± 0.5 THSN/CU MM
Normal nude mice [1]; day 22, 24 h after third irinotecan dose, irinotecan 200 mg/kg, MSC 0.2 mg/mouse, listed as irinotecan
  WBC: white blood cell: 3.5 THSN/CU MM
Normal nude mice [1]; irinotecan 200 mg/kg/wk, versus control (9.4 to 3.5)
  reduction in white blood cells: over 60%
Normal nude mice [2]; [7]
  animals survived treatment: 100%
  weight loss: less than 20%
Normal nude mice [2]; [8]
  animals died by the end of treatment: 55%
Normal nude mice [2]; normal nude mice, irinotecan i.v. weekly ×4
  maximum tolerated dose (MTD): 100 mg/kg/wk
Normal mice; irinotecan 200 mg/kg/wk×4 alone
  lethality: 50%
[3]; [9]
  Response Rate (%) CR: 20%
  Response Rate (%) PR: 20%
  Survivors (%): 100%
[3]; irinotecan 200 mg/kg/wk × 4 i.v.
  Survivors (%): 45%
[3]; irinotecan 300 mg/kg/wk × 4 i.v.
  Survivors (%): 0%
Normal rats; rats, irinotecan 200 mg/kg/day for 3 days i.v. (twice MTD), MSC 1 mg/kg/rat daily ×18 p.o.
  animals died: all the animals
Normal nude mice [4]; [8]
  lethality: approximately 55%
  survivors: 45%

## C[Se]C[C@H](N)C(=O)O [MSC, methylselenocysteine]
Normal nude mice [1]; MSC 0.2 mg/mouse/day with irinotecan 200 mg/kg/wk
  prevention of neutropenia toxicity induced by irinotecan: effectively prevent neutropenia toxicity
Normal nude mice [1]; [6]
  HCT: haematocrit: 49.4 ± 2.4%
  HGB: hemoglobin: 16.8 ± 0.7 Gram/DL
  MCH: mean corpuscular hemoglobin: 18.4 ± 0.7 PICO Grams
  MCHC: mean corpuscular hemoglobin concentration: 34.0 ± 0.7%
  MCV: mean corpuscular volume: 54.0 ± 1.0 CU Microns
  PLT: platelets: 756 ± 231 THSN/CU MM
  RBC: red blood cell: 9.1 ± 0.5 Mill/CU MM
  WBC: white blood cell: 10.3 ± 4.5 THSN/CU MM
Normal nude mice [1]; irinotecan 200 mg/kg/wk×4
  protection against hematologic toxicity induced by irinotecan: complete protection
Normal nude mice [2]; irinotecan 100 mg/kg/wk ×4 i.v. + MSC 0.2 mg/mouse/day ×42 p.o.
  effect of adding MSC on overall body weight loss: decrease in overall body weight loss
Normal nude mice [2]; irinotecan 200 mg/kg/wk×4 (twice MTD)
  protection provided by MSC: 100%
Normal nude mice [2]; irinotecan 200 mg/kg/wk×4 i.v. with MSC 0.2 mg/mouse/day ×42 p.o.
  animals survived: 100%
Normal nude mice [2]; irinotecan 300 mg/kg/wk×4 (three times MTD)
  protection provided by MSC: 80%
Normal mice; MSC 0.01 to 0.2 mg/mouse/day×42 with irinotecan 200 mg/kg/wk×4
  MSC dose sufficient for complete protection against lethal doses of irinotecan: ≤ 0.01 mg/mouse
Normal mice; MSC as low as 0.01 mg/mouse with irinotecan 200 mg/kg/wk×4
  lethality with the combination: no lethality
Normal rats; rats (FIG. 2), irinotecan 200 mg/kg dose
  animals with severe diarrhea completely protected by MSC: 50%
rats; MSC 0.75 mg/rat/day with CDDP 6 mg/kg
  reversal of markers associated with kidney toxicity (BUN and creatinine): highly effective
rats; [10]
  Blood Urea Nitrogen: 12.7 ± 1.2 mg/dL
  Creatinine: 0.30 ± 0.00 mg/dL
Normal nude mice [5]
  effect of MSC on the survival rate of animals: protective effect
Normal nude mice [4]; irinotecan 200 mg/kg/wk×4 i.v., selenium compound p.o. daily for 28 days, first dose 7 days before irinotecan
  reduction of irinotecan toxicity by selenium compound: equally effective in reducing toxicity
